Reference: patent US10973758B2 (O.D. Ocular Discovery Ltd., priority 2013, dated 2021)
Like-named read-outs stand apart in the source and are kept apart here.

Columns and labels:
[1] = cited from earlier work; for peak plasma level: oral
thrombus formation = conditions: arterial circulation of the brain, rabbit model; cited from earlier work
nitric oxide levels = conditions: cited from earlier work
[2] = cited from earlier work
[3] = Dissolution in pH-adjusted aqueous solution; assay type: physicochemical; conditions: pH adjusted to ˜6.6 (6.5-6.7)
Source text: The natural pH of tear fluid is 7.4; however, discomfort for the user will not be felt as long as the pH of the administered medication stays in the range of 6.6-7.8 (Sampath Kumar et al., “Recent Challenges and Advances in Ophthalmic Drug Delivery System,” in The Pharma Innovation, Vol. 1, No. 4 (2012)). Others administer eye drops at a pH of 5.5 and find this pH to be optimal.

cAMP levels = conditions: in-vitro, in comparison to a control; cited from earlier work
[4] = tested on: ocular inflammatory disease; conditions: cited from earlier work

SMILES: OCCN(CCO)c1nc(N2CCCCC2)c2nc(N(CCO)CCO)nc(N3CCCCC3)c2n1 [dipyridamole, 2,6-bis (diethanolamino)-4,8-dipiperidinopyrimido [5,4-d] pyrimidine]
- half-life, third phase of tri-exponential decline ([1]; IV or oral 20-50 mg, followed up to 60 hours): 10 to 12 h
- peak plasma level ([1]; after a 25 mg dose): about 0.5 g/mL
- peak plasma level ([1]; after a 75 mg dose): 1.6 µg/mL
- distribution half-life ([1]; humans, after oral administration): about 3 hours
- time to peak plasma levels ([1]; humans, following oral administration): 1 to 3 h
- distribution half-life ([1]; humans, intravenous (IV) administration): about 25 minutes
- effect on thrombus formation (thrombus formation): reduce thrombus formation
- effect on nitric oxide levels (nitric oxide levels): increases nitric oxide levels
- solubility in methanol ([2]; methanol): very soluble
- solubility in water ([2]; water): practically insoluble
- dissolution in aqueous solution [3]: fully dissolves
- effect on cAMP levels (cAMP levels): negligible effect
- effect in ocular inflammatory disease ([4]; systemically administered): significant beneficial effect
- effect in ocular inflammatory disease ([4]; topically administered (in liquid formulation)): ineffective
